This is an account of results in ChEMBL document CHEMBL1201862, “PubChem BioAssay data set” (2004).

Among the test systems are HL-60; SR; SK-MEL-2; HOP-62; MDA-MB-435; TK-10; BT-549; T47D; HCC 2998; HOP-92; SF-539; SF-268; OVCAR-4; DU-145; OVCAR-8; MCF7; RXF 393; ACHN; NCI-H226; MDA-MB-231.
Holding throughout (assay): NCI tumour cell line growth inhibition, 48 h

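Dose response: 5 concentrations. Exposure: 48 h. Format: 96-well plates. Endpoint: linear interpolation; highest concentration if not reached. GI50 marks 50% less growth.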 Calls of active or inactive are those of the source. Cut-off read from the data, not from the text of the source: active = GI50 up to about 1.1 µM and inactive = higher.

With `CN(N=O)C(=O)N[C@H]1C(O)O[C@H](CO)[C@@H](O)[C@@H]1O` (stereo not given in full), the GI50 was 499 µM (inactive) in the test on HL-60; 537 µM (inactive) in the test with SR; 647 µM (inactive) with SK-MEL-2; 568 µM (inactive) in the test with HOP-62; 515 µM (inactive) with MDA-MB-435; > 750 µM (inactive) with TK-10. The GI50 is > 750 µM (inactive) in the test with BT-549; 611 µM (inactive) in the test with T47D; 533 µM (inactive) in the test on HCC 2998; 548 µM (inactive) with HOP-92; 612 µM (inactive) in the test on SF-539; 608 µM (inactive) with SF-268. Further, the GI50 with OVCAR-4 is 590 µM (inactive); in the test with DU-145, > 750 µM (inactive); in the test with OVCAR-8, 617 µM (inactive); in the test on MCF7, 518 µM (inactive); with RXF 393, 600 µM (inactive); in the test with ACHN it was > 750 µM (inactive). For the same compound, the GI50 was 596 µM (inactive) with NCI-H226 and > 750 µM (inactive) in the test on MDA-MB-231.
As to `CN(C)CCNCCCNc1c2ccccc2nc2cccc([N+](=O)[O-])c12`, the GI50 in the test with HL-60 was < 0.0139 µM (active); with SR, < 0.01 µM (active); in the test on SK-MEL-2, 0.0197 µM (active); with HOP-62, 0.0288 µM (active); in the test on MDA-MB-435, < 0.0144 µM (active); with TK-10, 0.046 µM (active). For the same compound, the GI50 is 0.157 µM (active) in the test on BT-549; 0.0387 µM (active) in the test with T47D; < 0.0126 µM (active) in the test on HCC 2998; < 0.0156 µM (active) in the test with HOP-92; 0.0676 µM (active) with SF-539; < 0.016 µM (active) in the test with SF-268. Besides, the GI50 in the test on OVCAR-4 was < 0.0129 µM (active); in the test with DU-145, < 0.0159 µM (active); in the test with OVCAR-8 it was < 0.0146 µM (active); in the test with MCF7, 0.0102 µM (active); in the test with RXF 393, 0.0138 µM (active); in the test on ACHN, 0.017 µM (active). For the same compound, the GI50 is 0.0248 µM (active) with NCI-H226 and < 0.0129 µM (active) with MDA-MB-231.
For `C=C1CCC(O)C/C1=C/C=C1\CCCC2(C)C1CCC2C(C)CCCC(C)C` (stereo not given), the GI50 is 23.2 µM (inactive) with HL-60; 18.5 µM (inactive) in the test with SR; 18.6 µM (inactive) in the test with SK-MEL-2; 19.5 µM (inactive) in the test on HOP-62; 16.3 µM (inactive) with MDA-MB-435; 12.3 µM (inactive) in the test on TK-10. Also, the GI50 with BT-549 was 19.5 µM (inactive); with T47D, 19 µM (inactive); in the test on HCC 2998, 21.2 µM (inactive); with HOP-92, 17.7 µM (inactive); in the test with SF-539, 20.1 µM (inactive); in the test on SF-268 it was 23 µM (inactive). Besides, the GI50 in the test with OVCAR-4 is 18.1 µM (inactive); with DU-145, 20.9 µM (inactive); in the test with OVCAR-8 it was 18.1 µM (inactive); in the test with MCF7, 12.9 µM (inactive); with RXF 393 it was 18.5 µM (inactive); with ACHN it was 16 µM (inactive). The results for the GI50 in the test on NCI-H226 and with MDA-MB-231 were 16 µM (inactive) and 19.9 µM (inactive), respectively.
With `C/N=C(N)/N=C(\N)Nc1cc2ccccc2c2ccccc12`, the GI50 in the test on HL-60 was 4.06 µM (inactive); in the test on SR, 13.8 µM (inactive); in the test on SK-MEL-2, 18 µM (inactive); in the test with HOP-62, 17.5 µM (inactive); in the test on MDA-MB-435, 15.9 µM (inactive); in the test with TK-10, 13 µM (inactive). The GI50 with BT-549 is 15.1 µM (inactive); in the test with T47D, 14.8 µM (inactive); with HCC 2998, 2.44 µM (inactive); in the test with HOP-92 it was 14.9 µM (inactive); in the test with SF-539, 15.2 µM (inactive); in the test on SF-268, 13.4 µM (inactive). Further, the GI50 in the test on OVCAR-4 was 14.7 µM (inactive); in the test with DU-145 it was 15.2 µM (inactive); with OVCAR-8, 16.8 µM (inactive); in the test with MCF7 it was 13.2 µM (inactive); in the test with RXF 393, 14.9 µM (inactive); in the test on ACHN, 13.5 µM (inactive). The values for the GI50 with NCI-H226 and in the test on MDA-MB-231 were 20.7 µM (inactive) and 13.3 µM (inactive), respectively.
On to `COc1cccc(N2C(=O)C3CC(CC(C)(C)C)c4c([nH]c5ccccc45)C3C2=O)c1` (stereo not given), for which the GI50 in the test with HL-60 is > 10 µM (inactive); in the test on SR it was 1.48 µM (inactive); with SK-MEL-2 it was > 10 µM (inactive); in the test on HOP-62, 9.16 µM (inactive); with MDA-MB-435, > 10 µM (inactive); in the test on TK-10, > 10 µM (inactive). Also, the GI50 is 9.51 µM (inactive) in the test with BT-549; > 10 µM (inactive) in the test with T47D; > 10 µM (inactive) in the test with HCC 2998; > 10 µM (inactive) with HOP-92; 2.56 µM (inactive) in the test with SF-539; > 10 µM (inactive) in the test on SF-268. Besides, the GI50 in the test on OVCAR-4 was 2.62 µM (inactive); in the test with DU-145 it was > 10 µM (inactive); in the test with OVCAR-8 it was 3.56 µM (inactive); in the test with MCF7 it was 8.55 µM (inactive); in the test on RXF 393 it was > 10 µM (inactive); in the test on ACHN, > 10 µM (inactive). In addition, the GI50 with NCI-H226 was 2.77 µM (inactive); in the test on MDA-MB-231 it was 4.92 µM (inactive).
As to `O=C1/C(=C/c2ccc(O)cc2)CCCC1CN1CCCCC1` (stereo not given), the GI50 in the test with HL-60 was 0.483 µM (active); with SR, 1.39 µM (inactive); in the test on SK-MEL-2, 11.2 µM (inactive); in the test with HOP-62, 15.7 µM (inactive); in the test with MDA-MB-435, 7.28 µM (inactive); in the test on TK-10, 2.55 µM (inactive). The GI50 in the test with BT-549 is 2.55 µM (inactive); with T47D it was 2.32 µM (inactive); in the test with HCC 2998 it was 4.76 µM (inactive); in the test on HOP-92 it was 1.78 µM (inactive); in the test on SF-539 it was 3.94 µM (inactive); in the test with SF-268, 3.44 µM (inactive). The GI50 in the test on OVCAR-4 was 12.9 µM (inactive); in the test with DU-145, 7.24 µM (inactive); with OVCAR-8, 5.92 µM (inactive); in the test with MCF7, 1.69 µM (inactive); in the test on RXF 393, 13.7 µM (inactive); in the test with ACHN, 1.73 µM (inactive). The GI50 with NCI-H226 was 7.14 µM (inactive); in the test on MDA-MB-231, 2.27 µM (inactive).
Take `COc1cc(NCCC2CCCCN2)c2ncccc2c1` (stereo not given): the GI50 in the test with HL-60 was 3.56 µM (inactive); with SR it was 27.3 µM (inactive); with SK-MEL-2, > 55.7 µM (inactive); with HOP-62, > 96.4 µM (inactive); with MDA-MB-435 it was 26.4 µM (inactive); in the test on TK-10 it was > 73.6 µM (inactive). Moreover, the GI50 was > 100 µM (inactive) with BT-549; 0.397 µM (active) in the test on T47D; 16.4 µM (inactive) in the test on HCC 2998; 60.8 µM (inactive) with HOP-92; > 100 µM (inactive) in the test on SF-539; > 92.7 µM (inactive) with SF-268. Further, the GI50 in the test on OVCAR-4 was > 70.5 µM (inactive); in the test with DU-145, > 76.9 µM (inactive); with OVCAR-8, > 100 µM (inactive); in the test on MCF7, 0.31 µM (active); in the test with RXF 393 it was 22.2 µM (inactive); in the test on ACHN, > 100 µM (inactive). Further, the GI50 in the test on NCI-H226 is > 63.8 µM (inactive); in the test with MDA-MB-231, 34.8 µM (inactive).
For the compound `CC1OC(c2ccc3c(c2O)C(=O)C2=C(C3=O)C3(O)C(=O)CC(C)(O)CC3(O)C=C2)CC(O)C1O` (stereo not given), the GI50 is 1.98 µM (inactive) in the test with HL-60; 10.2 µM (inactive) in the test with SR; 20.5 µM (inactive) in the test on SK-MEL-2; 26.8 µM (inactive) in the test with HOP-62; 10.6 µM (inactive) in the test with MDA-MB-435; 15.1 µM (inactive) with TK-10. Besides, the GI50 was 18.7 µM (inactive) in the test on BT-549; 11.5 µM (inactive) with T47D; 15.5 µM (inactive) with HCC 2998; 14.7 µM (inactive) in the test with HOP-92; 17.7 µM (inactive) with SF-539; 21.2 µM (inactive) with SF-268. Moreover, the GI50 in the test on OVCAR-4 was 13.7 µM (inactive); in the test on DU-145 it was 15.6 µM (inactive); in the test with OVCAR-8, 14.1 µM (inactive); in the test on MCF7, 2.79 µM (inactive); in the test on RXF 393 it was 11.4 µM (inactive); in the test on ACHN it was 13.6 µM (inactive). Moreover, the GI50 is 19.8 µM (inactive) with NCI-H226 and 2.25 µM (inactive) in the test on MDA-MB-231.
Take `C=Cc1c(C)c(O)cc2c1-c1ccc(O)c(C)c1CC2`: the GI50 in the test with HL-60 was 15 µM (inactive); in the test with SR, 3.71 µM (inactive); in the test with SK-MEL-2 it was 17.1 µM (inactive); in the test with HOP-62, 26.7 µM (inactive); with MDA-MB-435, 14.1 µM (inactive); with TK-10, 13.1 µM (inactive). Also, the GI50 with BT-549 is 19.5 µM (inactive); with T47D it was 10.9 µM (inactive); in the test on HCC 2998 it was 19 µM (inactive); in the test with HOP-92, 23.2 µM (inactive); with SF-539, 13.5 µM (inactive); in the test with SF-268, 18.5 µM (inactive). Moreover, the GI50 was 17.1 µM (inactive) in the test on OVCAR-4; 14.1 µM (inactive) in the test on DU-145; 17.5 µM (inactive) in the test on OVCAR-8; 20.9 µM (inactive) in the test on MCF7; 10.9 µM (inactive) in the test on RXF 393; 29.4 µM (inactive) with ACHN. Further, the GI50 in the test with NCI-H226 is 17.3 µM (inactive); in the test with MDA-MB-231, 23.2 µM (inactive).
With `CCN(CC)CCNc1ccc2ncn3c4c(OC)ccc(O)c4c(=O)c1c23`, the GI50 in the test with HL-60 was 30.8 µM (inactive); in the test with SR, 1.63 µM (inactive); with SK-MEL-2 it was > 100 µM (inactive); with HOP-62 it was 15.4 µM (inactive); with MDA-MB-435, 24.9 µM (inactive); with TK-10 it was 33 µM (inactive). Further, the GI50 with BT-549 was 37.3 µM (inactive); with T47D it was > 100 µM (inactive); with HCC 2998, 5.25 µM (inactive); with HOP-92, 2.74 µM (inactive); in the test on SF-539, 6.98 µM (inactive); with SF-268 it was 6.49 µM (inactive). The GI50 in the test with OVCAR-4 is 6.21 µM (inactive); in the test on DU-145 it was 19.3 µM (inactive); with OVCAR-8 it was 6.93 µM (inactive); in the test with MCF7, 3.52 µM (inactive); in the test with RXF 393, 5.85 µM (inactive); with ACHN, 5.94 µM (inactive). For the same compound, the GI50 in the test on NCI-H226 is 45.8 µM (inactive); in the test on MDA-MB-231, 13.7 µM (inactive).
